This passage reports IC50, CC50 and IC80 results from US20110034472A1, “Novel Compounds for Treatment of Cancer and Disorders Associated With Angiogenesis Function” (UNIVERSITY OF SOUTHERN CALIFORNIA, priority 2004, published 2011).

Data set [1] concerns MDA-MB-435 breast cancer cells. In words: MTT cytotoxicity assay, MDA-MB-435. It is filed as cell-based, human. Particulars: Homo sapiens. Put shortly: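 Breast cells were seeded at 4,000 cells/well, allowed to attach, then exposed continuously to drug for 72 h. MTT at 0.5 mg/mL final was added for 4 h at 37 °C, formazan dissolved in DMSO and absorbance read at 570 nm, in triplicate. IC50 came from log(concentration) versus percent cell kill.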

Data set [2] concerns LNCaP prostate cancer cells. The experiment in a line: MTT cytotoxicity assay, LNCaP. It is filed as cell-based. Particulars: Homo sapiens. As to the method:
(§1) Cytotoxicity was assessed by a 3-(4,5-dimethylthiazol-2-yl)-2,5-diphenyltetrazolium bromide assay as previously described (Carmichael et al. (1987) Cancer Res. 47:936-42). Briefly, cells were seeded in 96-well microtiter plates (PC3 and DU145 at 5,000 cells/well and LNCaP at 10,000 cells/well; breast and ovarian cells at 4,000 cells/well) and allowed to attach. Cells were subsequently treated with a continuous exposure to the corresponding drug for 72 hours. A 3-(4,5-dimethylthiazol-2-yl)-2,5-diphenyltetrazolium bromide solution (at a final concentration of 0.5 mg/mL) was added to each well and cells were incubated for 4 hours at 37° C. After removal of the medium, DMSO was added and the absorbance was read at 570 nm. All assays were done in triplicate. The IC50 was then determined for each drug from a plot of log(drug concentration) versus percentage of cell kill.
Cytotoxicity was assessed by a 3-(4,5-dimethylthiazol-2-yl)-2,5-diphenyltetrazolium bromide (MTT) assay as previously described.^9 Briefly, cells were seeded in 96-well microtiter plates and allowed to attach. Cells were subsequently treated with continuous exposure to the corresponding drug for 72 h. An MTT solution (at a final concentration of 0.5 mg/mL) was added to each well, and cells were incubated for 4 h at 37° C. After removal of the medium, DMSO was added and the absorbance was read at 570 nm. All assays were done in triplicate. The IC50 was then determined for each drug from a plot of log (drug concentration) versus percentage of cells killed.

Data set [3] deals with DU145 prostate cancer cells. The experiment in a line: MTT cytotoxicity assay, DU145. It is filed as cell-based. Particulars: Homo sapiens; for IC50: DU-145, 72 hours continuous exposure, read-out: IC50 values (mean ± SD). As to the method: (§2) The sensitivity of a panel of seven human cancer cell lines to SC144 was assessed by MTT-assay. […] The sensitivity towards SC144 was time- and dose-dependent.
as §1
In general terms: Formazan colour is commonly taken as a measure of viable cells.

The subject of data set [4] is CEM or HEY cells. The experiment in a line: Cytotoxicity of salicylhydrazides (Table 5). The following applies: Homo sapiens. The data set is classed as cell-based.
Description: Human prostate cancer cells (PC3, p53 null, AR−; DU145, p53 mutant, AR−; and LNCaP, p53 wild-type, AR+) and breast cancer cells (MCF-7, overexpressed wild-type p53, ER+; MDA-MB-468, p53 mutant, […]; and MDA-MB-435, p53 mutant, ER−) were obtained from American Type Cell Culture (Manassas, Va.). The human ovarian carcinoma cell line (HEY) naturally resistant to cisplatin (CDDP) was kindly provided by Dr. Dubeau (University of Southern California Norris Cancer Center; Buick et al. (1985) Cancer Res. 45:3668-76 and Hamaguchi et al. (1993) Cancer Res. 53:5225-32). The results with CEM cells were previously described (Neamati et al. (1998) J. Med. Chem. 41:3202-9). Cells were maintained as monolayer cultures in RPMI 1640 supplemented with 10% fetal bovine serum (Gemini-Bioproducts, Woodland, Calif.) and 2 mmol/L L-glutamine at 37° C. in a humidified atmosphere of 5% CO2. To remove the adherent cells from the flask for passaging and counting, cells were washed with PBS without calcium or magnesium, incubated with a small volume of 0.25% trypsin-EDTA solution (Sigma-Aldrich, St. Louis, Mo.) for 5 to 10 minutes, and washed with culture medium and centrifuged. All experiments were done using cells in exponential cell growth.
as §1

Data set [5] deals with HEY ovarian cancer cells. In words: MTT cytotoxicity assay, HEY. The data set is classed as cell-based, human. Particulars: Homo sapiens, HEY; for IC50: 72 hours continuous exposure, read-out: IC50 values (mean ± SD). The method, then: as §2, §1
Data set [6] concerns PC3 prostate cancer cells. The experiment in a line: MTT cytotoxicity assay, PC3. It is filed as cell-based. The following applies: Homo sapiens. As to the method: as §2, §1
The subject of data set [7] is MDA-MB-468 breast cancer cells. In words: MTT cytotoxicity assay, MDA-MB-468. It is filed as cell-based. Particulars: Homo sapiens; for IC50: 72 hours continuous exposure, read-out: IC50 values (mean ± SD). The method, then:
as §2, §1

The test system of data set [8] is MCF-7 breast cancer cells. The experiment in a line: MTT cytotoxicity assay, MCF-7. It is filed as cell-based, human. The following applies: for IC50: MCF7, 72 hours continuous exposure, read-out: IC50 values (mean ± SD); for CC50: MTT-assay, read-out: CC50 values (mean ± SD). The method, then:
as §2, §1

For data set [9], the system named is HCT-116 colon cancer cells. In words: Sensitivity of various cancer cells to SC144, HCT-116. The following applies: Homo sapiens. It is filed as cell-based. The text has this:
(§3) The studies were expanded to other cell lines. […] Subnanomolar to low nanomolar potency was also observed in HCT-116 and HT29 colon cancer cell lines (Table 2).

Data set [10] concerns UACC-62 melanoma cells. In words: Sensitivity of various cancer cells to SC144, UACC-62. The data set is classed as cell-based. Particulars: Homo sapiens.
Description: as §3

The subject of data set [11] is MDA-MB-435 cells. The experiment in a line: MTT assay, continuous drug exposure for 48 hours (Table 3). The data set is classed as cell-based, human. Particulars: for IC80: MDA-MB-435, read-out: CC80.
Data set [12] relates to HT29 colon cancer cells. In words: Sensitivity of various cancer cells to SC144, HT29. It is filed as cell-based. The following applies: Homo sapiens, HT-29.
Description: as §3

[13] abbreviates: 72 hours continuous exposure, read-out: IC50 values (mean ± SD).
Setting [14] is: PC-3, PC3 cells, read-out: IC50 value.
Where [15] appears, read: PC3, 72 hours continuous exposure, read-out: IC50 values (mean ± SD).
Setting [16] is: MTT-assay, read-out: CC50 values (mean ± SD).

Like-named read-outs stand apart in the source and are kept apart here.

For the compound `O=C(NNC(=O)c1ccccc1O)C1=CC2C=CC=CC2C=C1O` (stereo not shown) [SC21], the IC50 (as a rule, the concentration needed to halve the response being measured) in data set [1] (setting [13]) amounted to 35 ± 7 nM; in data set [2] (setting [13]) it was 200 ± 70 nM; in [3] it was 120 ± 50 nM; in data set [4], 400 ± 60 nM; in data set [5], 400 ± 60 nM; in [6] (setting [14]) it was 3200 ± 200 nM. In addition, the IC50 in [6] (setting [15]) is 3250 nM; in data set [7], 200 ± 2 nM; in [8] (Homo sapiens, MCF-7) it was 40 ± 7 nM.

For the compound `O=C(NNc1nc2cc(F)ccc2n2cccc12)c1cnccn1` [SC144, Pyrazine-2-carboxylic acid N′-(7-fluoro-pyrrolo[1,2-a]quinoxalin-4-yl)-hydrazide], the IC50 in [1] (MTT, 72 h, read-out: IC50) turned out to be 4000 ± 100 nM; in data set [2] (hLNCaP, MTT, 72 h, read-out: IC50), 400 ± 60 nM. Also, the CC50 – broadly, the concentration that lowers cell viability or growth by half – in data set [1] (setting [16]) was found to be 4000 ± 1400 nM; in data set [9], 17 nM; in data set [10], 800 nM; in [3] (DU-145, MTT-assay, read-out: CC50 values (mean ± SD)), 3000 ± 300 nM; in data set [11] (Homo sapiens, MDA-MB-435), 4000 ± 1400 nM; in data set [5] (setting [16]), 1000 ± 60 nM. Moreover, the half-maximal cytotoxic concentration (CC50) in data set [6] (PC3, MTT-assay, read-out: CC50 values (mean ± SD)) is 10000 ± 200 nM; in [12], 78 nM; in [7] (setting [16]), 700 ± 100 nM; in data set [8] (Homo sapiens, MCF7, MCF-7), 1700 ± 300 nM; in data set [8] (MCF-7) it was 2000 ± 300 nM. Also, the IC80 in data set [11] (Homo sapiens) was 10000 ± 10 nM.

`O=C(NNC(O)c1cc2ccccc2cc1O)c1cc2ccccc2cc1O` (stereo not shown) [SC23]: the IC50 in data set [1] (setting [13]) came out at 240 ± 28 nM; in data set [2] (setting [13]), 850 ± 200 nM; in [3], 50 ± 19 nM; in [4], 2300 ± 200 nM; in [5] it was 2350 nM; in data set [6] (setting [14]) it was 2000 ± 500 nM. Also, the IC50 in data set [6] (setting [15]) came out at 2000 nM; in [7] it was 50 ± 14 nM; in data set [8] (Homo sapiens, MCF-7), 280 ± 35 nM. For the same compound, half-maximal cytotoxicity in [11] (CC50) was put at 40 ± 7 nM. In addition, the IC80 in data set [11] (Homo sapiens) was found to be 100 ± 10 nM.
